Measurements: PubChem BioAssay AID1745844 (Carcinogenic Potency Database (CPDB), 2022)
Active and inactive are the calls of the source. No rule for the calls is given here.

Test system: rodent lifetime carcinogenesis bioassay, tumor incidence TD50
Test: carcinogenic potency in animals, long-term in vivo studies, CPDB compilation (AID 1745844)

COc1cc(-c2ccc(N)c(OC)c2)ccc1N
carcinogen call (mouse, strain BALB/cStCrlfC3Hf/Nctr, females, in drinking water, site: Harderian gland, lesion: adenoma, dosed 78 weeks, study length 78 weeks): negative (inactive) | carcinogen call (mouse, strain BALB/cStCrlfC3Hf/Nctr, females, in drinking water, site: Harderian gland, lesion: adenoma, dosed 112 weeks, study length 112 weeks): negative (inactive) | carcinogen call (mouse, strain BALB/cStCrlfC3Hf/Nctr, females, in drinking water, site: Harderian gland, lesion: carcinoma, dosed 78 weeks, study length 78 weeks): negative (inactive) | TD50 (mouse, strain BALB/cStCrlfC3Hf/Nctr, males, in drinking water, site: Harderian gland, lesion: adenoma, dosed 78 weeks, study length 78 weeks): 3560 mg/kg/day (inactive) | carcinogen call (mouse, strain BALB/cStCrlfC3Hf/Nctr, males, in drinking water, site: Harderian gland, lesion: adenoma, dosed 112 weeks, study length 112 weeks): negative (inactive) | TD50 (mouse, strain ICR/Jcl, males, in feed, site: liver, lesion: hepatoma, dosed 65 weeks, study length 65 weeks): 73.8 mg/kg/day | TD50 (rat, strain Fischer 344, females, in drinking water, site: Zymbal's gland, lesion: adenoma + carcinoma + carcinoma, bilateral, dosed 91 weeks, study length 93 weeks): 6.74 mg/kg/day | TD50 (rat, strain Fischer 344, females, in drinking water, site: Zymbal's gland, lesion: adenoma, dosed 91 weeks, study length 93 weeks): 27.5 mg/kg/day | TD50 (rat, strain Fischer 344, females, in drinking water, site: Zymbal's gland, lesion: carcinoma + carcinoma, bilateral, dosed 91 weeks, study length 93 weeks): 8.41 mg/kg/day | TD50 (rat, strain Fischer 344, females, in drinking water, site: all sites, lesion: mononuclear-cell leukemia, dosed 91 weeks, study length 93 weeks): 6.71 mg/kg/day | TD50 (rat, strain Fischer 344, females, in drinking water, site: any site (literature study), lesion: several types, types named in the paper, dosed 91 weeks, study length 93 weeks): 1.09 mg/kg/day | TD50 (rat, strain Fischer 344, females, in drinking water, site: cervix uteri + uterus, lesion: carcinoma + papillary adenoma + adenoma, dosed 91 weeks, study length 93 weeks): 14 mg/kg/day | TD50 (rat, strain Fischer 344, females, in drinking water, site: cervix uteri + uterus, lesion: papillary adenoma + adenoma, dosed 91 weeks, study length 93 weeks): 15.8 mg/kg/day | TD50 (rat, strain Fischer 344, females, in drinking water, site: clitoral gland + cervix uteri + colon, descending + liver + mammary gland + palate + pharynx + rectum + skin + tongue + uterus + Zymbal's glan, lesion: adenoma + adenoma, bilateral + carcinoma + carcinoma, bilateral + papillary adenoma + adenocarcinoma + adenomatous polyp + hepatocellu, dosed 91 weeks, study length 93 weeks): 1.19 mg/kg/day | TD50 (rat, strain Fischer 344, females, in drinking water, site: clitoral gland, lesion: adenoma + adenoma, bilateral + carcinoma + carcinoma, bilateral, dosed 91 weeks, study length 93 weeks): 1.6 mg/kg/day | TD50 (rat, strain Fischer 344, females, in drinking water, site: clitoral gland, lesion: adenoma + adenoma, bilateral, dosed 91 weeks, study length 93 weeks): 3.84 mg/kg/day | TD50 (rat, strain Fischer 344, females, in drinking water, site: clitoral gland, lesion: carcinoma + carcinoma, bilateral, dosed 91 weeks, study length 93 weeks): 2.62 mg/kg/day | TD50 (rat, strain Fischer 344, females, in drinking water, site: colon, descending + rectum, lesion: adenocarcinoma + adenomatous polyp, dosed 91 weeks, study length 93 weeks): 44.3 mg/kg/day | TD50 (rat, strain Fischer 344, females, in drinking water, site: liver, lesion: hepatocellular adenoma + hepatocellular carcinoma + neoplastic nodule, dosed 91 weeks, study length 93 weeks): 33.3 mg/kg/day | TD50 (rat, strain Fischer 344, females, in drinking water, site: liver, lesion: hepatocellular carcinoma + neoplastic nodule, dosed 91 weeks, study length 93 weeks): 33.3 mg/kg/day | TD50 (rat, strain Fischer 344, females, in drinking water, site: mammary gland, lesion: adenocarcinoma + adenoma + fibroadenoma, dosed 91 weeks, study length 93 weeks): 3.24 mg/kg/day | TD50 (rat, strain Fischer 344, females, in drinking water, site: mammary gland, lesion: adenocarcinoma, dosed 91 weeks, study length 93 weeks): 7.7 mg/kg/day | TD50 (rat, strain Fischer 344, females, in drinking water, site: mammary gland, lesion: adenoma + fibroadenoma, dosed 91 weeks, study length 93 weeks): 6.22 mg/kg/day | TD50 (rat, strain Fischer 344, females, in drinking water, site: mammary gland, lesion: fibroadenoma, dosed 91 weeks, study length 93 weeks): 7.05 mg/kg/day | TD50 (rat, strain Fischer 344, females, in drinking water, site: palate + pharynx + tongue, lesion: squamous-cell carcinoma + squamous-cell papilloma, dosed 91 weeks, study length 93 weeks): 13.8 mg/kg/day | TD50 (rat, strain Fischer 344, females, in drinking water, site: palate + tongue, lesion: squamous-cell carcinoma, dosed 91 weeks, study length 93 weeks): 113 mg/kg/day | TD50 (rat, strain Fischer 344, females, in drinking water, site: palate + tongue, lesion: squamous-cell papilloma, dosed 91 weeks, study length 93 weeks): 16.6 mg/kg/day | TD50 (rat, strain Fischer 344, females, in drinking water, site: palate, lesion: squamous-cell carcinoma + squamous-cell papilloma, dosed 91 weeks, study length 93 weeks): 45.3 mg/kg/day | TD50 (rat, strain Fischer 344, females, in drinking water, site: palate, lesion: squamous-cell papilloma, dosed 91 weeks, study length 93 weeks): 47.8 mg/kg/day | TD50 (rat, strain Fischer 344, females, in drinking water, site: pituitary gland, lesion: adenoma + pars distalis adenoma + pars distalis carcinoma, dosed 91 weeks, study length 93 weeks): 9.4 mg/kg/day | TD50 (rat, strain Fischer 344, females, in drinking water, site: pituitary gland, lesion: adenoma + pars distalis adenoma, dosed 91 weeks, study length 93 weeks): 8.84 mg/kg/day | TD50 (rat, strain Fischer 344, females, in drinking water, site: skin, lesion: basal-cell adenoma + basal-cell carcinoma, dosed 91 weeks, study length 93 weeks): 10.2 mg/kg/day | TD50 (rat, strain Fischer 344, females, in drinking water, site: skin, lesion: basal-cell adenoma, dosed 91 weeks, study length 93 weeks): 12.3 mg/kg/day | TD50 (rat, strain Fischer 344, females, in drinking water, site: tongue, lesion: squamous-cell carcinoma + squamous-cell papilloma, dosed 91 weeks, study length 93 weeks): 19.9 mg/kg/day | TD50 (rat, strain Fischer 344, females, in drinking water, site: uterus, lesion: endometrial stromal polyp, dosed 91 weeks, study length 93 weeks): 11.6 mg/kg/day | TD50 (rat, strain Fischer 344, males, in drinking water, site: Zymbal's gland, lesion: adenoma + adenoma, bilateral + carcinoma + carcinoma, bilateral, dosed 88 weeks, study length 92 weeks): 3.02 mg/kg/day | TD50 (rat, strain Fischer 344, males, in drinking water, site: Zymbal's gland, lesion: adenoma + adenoma, bilateral, dosed 88 weeks, study length 92 weeks): 5.84 mg/kg/day | TD50 (rat, strain Fischer 344, males, in drinking water, site: Zymbal's gland, lesion: carcinoma + carcinoma, bilateral, dosed 88 weeks, study length 92 weeks): 6.71 mg/kg/day | TD50 (rat, strain Fischer 344, males, in drinking water, site: adrenal medulla, lesion: pheochromocytoma benign, bilateral + pheochromocytoma, benign, dosed 88 weeks, study length 92 weeks): 2.06 mg/kg/day | TD50 (rat, strain Fischer 344, males, in drinking water, site: adrenal medulla, lesion: pheochromocytoma benign, bilateral + pheochromocytoma, malignant + pheochromocytoma, benign, dosed 88 weeks, study length 92 weeks): 2.11 mg/kg/day | TD50 (rat, strain Fischer 344, males, in drinking water, site: all sites + colon, ascending + cecum + colon + colon, descending + duodenum + ileum + jejunum + liver + palate + pharynx + preputial gland + rec, lesion: mesothelioma, benign + mesothelioma, malignant + adenomatous polyp + mucinous cystadenocarcinoma + adenocarcinoma + hepatocellular, dosed 88 weeks, study length 92 weeks): 0.677 mg/kg/day | TD50 (rat, strain Fischer 344, males, in drinking water, site: all sites, lesion: mesothelioma, benign + mesothelioma, malignant, dosed 88 weeks, study length 92 weeks): 27.4 mg/kg/day | TD50 (rat, strain Fischer 344, males, in drinking water, site: all sites, lesion: mononuclear-cell leukemia, dosed 88 weeks, study length 92 weeks): 2.5 mg/kg/day | TD50 (rat, strain Fischer 344, males, in drinking water, site: any site (literature study), lesion: several types, types named in the paper, dosed 88 weeks, study length 92 weeks): 0.565 mg/kg/day | TD50 (rat, strain Fischer 344, males, in drinking water, site: brain + cerebellum, cerebrum + cerebrum + cerebellum, lesion: astrocytoma, malignant, dosed 88 weeks, study length 92 weeks): 10.9 mg/kg/day | TD50 (rat, strain Fischer 344, males, in drinking water, site: cecum + colon + colon, descending + rectum, lesion: mucinous cystadenocarcinoma + adenocarcinoma, dosed 88 weeks, study length 92 weeks): 38 mg/kg/day | TD50 (rat, strain Fischer 344, males, in drinking water, site: colon, ascending + cecum + colon + colon, descending + rectum, lesion: adenomatous polyp + mucinous cystadenocarcinoma + adenocarcinoma, dosed 88 weeks, study length 92 weeks): 9.91 mg/kg/day | TD50 (rat, strain Fischer 344, males, in drinking water, site: colon, ascending + colon, descending + rectum, lesion: adenomatous polyp, dosed 88 weeks, study length 92 weeks): 13.6 mg/kg/day | TD50 (rat, strain Fischer 344, males, in drinking water, site: duodenum + ileum + jejunum, lesion: adenocarcinoma + mucinous cystadenocarcinoma, dosed 88 weeks, study length 92 weeks): 8.44 mg/kg/day | TD50 (rat, strain Fischer 344, males, in drinking water, site: liver, lesion: hepatocellular adenoma + hepatocellular carcinoma + neoplastic nodule, dosed 88 weeks, study length 92 weeks): 7.8 mg/kg/day | TD50 (rat, strain Fischer 344, males, in drinking water, site: liver, lesion: hepatocellular carcinoma + neoplastic nodule, dosed 88 weeks, study length 92 weeks): 7.8 mg/kg/day | TD50 (rat, strain Fischer 344, males, in drinking water, site: liver, lesion: neoplastic nodule, dosed 88 weeks, study length 92 weeks): 12.4 mg/kg/day | TD50 (rat, strain Fischer 344, males, in drinking water, site: palate + pharynx + tongue, lesion: squamous-cell carcinoma + squamous-cell papilloma, dosed 88 weeks, study length 92 weeks): 4.22 mg/kg/day | TD50 (rat, strain Fischer 344, males, in drinking water, site: palate, lesion: squamous-cell carcinoma + squamous-cell papilloma, dosed 88 weeks, study length 92 weeks): 8.21 mg/kg/day | TD50 (rat, strain Fischer 344, males, in drinking water, site: palate, lesion: squamous-cell papilloma, dosed 88 weeks, study length 92 weeks): 8.35 mg/kg/day | TD50 (rat, strain Fischer 344, males, in drinking water, site: pharynx + tongue, lesion: squamous-cell papilloma, dosed 88 weeks, study length 92 weeks): 4.49 mg/kg/day | TD50 (rat, strain Fischer 344, males, in drinking water, site: preputial gland, lesion: adenoma + adenoma, bilateral + carcinoma + carcinoma, bilateral, dosed 88 weeks, study length 92 weeks): 1.78 mg/kg/day | TD50 (rat, strain Fischer 344, males, in drinking water, site: preputial gland, lesion: adenoma + adenoma, bilateral, dosed 88 weeks, study length 92 weeks): 3.28 mg/kg/day | TD50 (rat, strain Fischer 344, males, in drinking water, site: preputial gland, lesion: carcinoma + carcinoma, bilateral, dosed 88 weeks, study length 92 weeks): 4.65 mg/kg/day | TD50 (rat, strain Fischer 344, males, in drinking water, site: skin, lesion: basal-cell adenoma + basal-cell carcinoma + sebaceous gland carcinoma + sebaceous adenoma, dosed 88 weeks, study length 92 weeks): 0.767 mg/kg/day | TD50 (rat, strain Fischer 344, males, in drinking water, site: skin, lesion: basal-cell adenoma + basal-cell carcinoma, dosed 88 weeks, study length 92 weeks): 0.77 mg/kg/day | TD50 (rat, strain Fischer 344, males, in drinking water, site: skin, lesion: basal-cell adenoma + sebaceous adenoma, dosed 88 weeks, study length 92 weeks): 0.785 mg/kg/day | TD50 (rat, strain Fischer 344, males, in drinking water, site: skin, lesion: basal-cell adenoma, dosed 88 weeks, study length 92 weeks): 0.789 mg/kg/day | TD50 (rat, strain Fischer 344, males, in drinking water, site: skin, lesion: basal-cell carcinoma + sebaceous gland carcinoma, dosed 88 weeks, study length 92 weeks): 6.5 mg/kg/day | TD50 (rat, strain Fischer 344, males, in drinking water, site: skin, lesion: basal-cell carcinoma, dosed 88 weeks, study length 92 weeks): 6.55 mg/kg/day | TD50 (rat, strain Fischer 344, males, in drinking water, site: skin, lesion: keratoacanthoma, dosed 88 weeks, study length 92 weeks): 9.13 mg/kg/day | TD50 (rat, strain Fischer 344, males, in drinking water, site: skin, lesion: sebaceous gland carcinoma + sebaceous adenoma, dosed 88 weeks, study length 92 weeks): 24.6 mg/kg/day | TD50 (rat, strain Fischer 344, males, in drinking water, site: skin, lesion: squamous-cell carcinoma + squamous-cell papilloma, dosed 88 weeks, study length 92 weeks): 2.01 mg/kg/day | TD50 (rat, strain Fischer 344, males, in drinking water, site: skin, lesion: squamous-cell carcinoma, dosed 88 weeks, study length 92 weeks): 2.35 mg/kg/day | TD50 (rat, strain Fischer 344, males, in drinking water, site: skin, lesion: squamous-cell papilloma, dosed 88 weeks, study length 92 weeks): 6.6 mg/kg/day | TD50 (rat, strain Fischer 344, males, in drinking water, site: subcutaneous tissue, lesion: fibroma + neurofibroma, dosed 88 weeks, study length 92 weeks): 5.19 mg/kg/day | TD50 (rat, strain Fischer 344, males, in drinking water, site: subcutaneous tissue, lesion: fibroma, dosed 88 weeks, study length 92 weeks): 13.9 mg/kg/day | TD50 (rat, strain Fischer 344, males, in drinking water, site: subcutaneous tissue, lesion: fibrosarcoma + fibroma + neurofibroma + sarcoma, dosed 88 weeks, study length 92 weeks): 6.49 mg/kg/day | TD50 (rat, strain Fischer 344, males, in drinking water, site: subcutaneous tissue, lesion: fibrosarcoma + fibroma, dosed 88 weeks, study length 92 weeks): 13.6 mg/kg/day | TD50 (rat, strain Fischer 344, males, in drinking water, site: testis, lesion: interstitial-cell adenoma, bilateral + interstitial-cell adenoma, dosed 88 weeks, study length 92 weeks): 0.612 mg/kg/day | TD50 (rat, strain Fischer 344, males, in drinking water, site: thyroid gland, lesion: c-cell adenoma + c-cell carcinoma, dosed 88 weeks, study length 92 weeks): 4.7 mg/kg/day | TD50 (rat, strain Fischer 344, males, in drinking water, site: thyroid gland, lesion: c-cell adenoma, dosed 88 weeks, study length 92 weeks): 6.92 mg/kg/day | TD50 (rat, strain Fischer 344, males, in drinking water, site: tongue, lesion: squamous-cell carcinoma + squamous-cell papilloma, dosed 88 weeks, study length 92 weeks): 8.25 mg/kg/day | TD50 (rat, strain Fischer 344, males, in drinking water, site: tongue, lesion: squamous-cell papilloma, dosed 88 weeks, study length 92 weeks): 9.16 mg/kg/day
